Tests used:
Assay type in all cases: in vivo, BALB/c mice
[1] = system: VEGF-A; assay: VEGF-A mRNA in inflamed corneas, real-time PCR; settings: 24 h and 72 h after suture placement
Experimental: (§1) The standard model for induction of inflammatory corneal NV is associated with development of intrastromal vessels in close association with a mixed-cell (primarily neutrophilic) infiltrate. (43,44) Three interrupted sutures (11-0 nylon, Sharpoint; Vanguard, Houston, Tex.) were placed intrastromally with two stromal incursions extending over 120° of the corneal circumference each to induce inflammatory corneal NV, which is also associated with significant LA, as described previously. (43) The corneas were followed by slit-lamp biomicroscopy for corneal NV development. […]
(§2) BALB/c mice were randomized to receive ATLa, or vehicle (normal saline) by subconjunctival injection in a masked fashion after suture or hydron pellet placement. […] (49) The physical properties were monitored routinely via LC/MS/MS matching the reported biological and physical properties prior to analysis in present experiments. […]
(§3) 1 μl of total cDNA, synthesized from 400 ng total RNA with random hexamers using Superscript™ III Reverse Transcriptase (Invitrogen, Carlsbad, Calif.), was loaded in each well and assays were performed in triplicates. […] The results were analyzed by comparative threshold cycle (CT) method. The relative expression level of each sample was expressed as fold change from normal control.

[2] = system: VEGFR-3; assay: VEGFR-3 mRNA in inflamed corneas, real-time PCR; settings: vs vehicle-treated controls
Experimental: as §1, §2, §3

[3] = system: mouse IL-1 beta; assay: IL-1β protein in inflamed corneas, ELISA
Experimental: FIG. 13, ATLa Regulates IL-1β. Mice were treated at 0 h and 48 h after suture-placement with ATLa or vehicle. Whole corneas were excised at 72 h, and subsequently freeze-thawed 3 times. Cornea was then homogenized using a pellet pestile motor with additional protease inhibitors. Homogenates were centrifuged at 12,000 rpm for 5 minutes and the supernatant was assayed for mouse IL-1 beta via ELISA (eBioscience, USA) according to the manufacturer's instructions.
as §1
(§4) BALB/c mice were randomized to receive ATLa, or vehicle (normal saline) by subconjunctival injection in a masked fashion after suture or hydron pellet placement. […] (49) The physical properties were monitored routinely via LC/MS/MS matching the reported biological and physical properties prior to analysis in present experiments.

[4] = system: IL-1β-induced corneal HA and LA; assay: Corneal micropocket assay, IL-1β pellet; settings: IL-1β micropellet
Experimental: (§5) The corneal micropocket assay in mice and quantification of the resultant NV has been described previously. (45,46) In brief, 0.3 μl of hydron pellets (IFN Sciences, New Brunswick, N.J.) containing 30 ng of murine IL-1β (R&D Systems, Minneapolis, Minn.) or 200 ng of VEGF-A (gift from BRB Preclinical Repository, National Cancer Institute) were prepared and implanted into the corneal stroma of male BALB/c mice. After 7 days the animals were sacrificed and the corneas were harvested for quantitative analysis of HA and LA.
as §4
(§6) Full thickness corneal tissue or 8 μm-frozen sections were fixed in acetone for 15 minutes at room temperature. […] Finally, the samples were covered with mounting medium (Vector Laboratories, Burlingame, Calif.) and analyzed by epifluorescence microscopy (Eclipse E800; Nikon, Tokyo, Japan). […]
(§7) To quantify corneal angiogenesis, digital pictures of corneal flat-mounts were taken using an image analysis system (Spot Image Analysis, Diagnostic Instruments, Sterling Heights, Mich.). […]

[5] = system: VEGF-C; assay: VEGF-C mRNA in inflamed corneas, real-time PCR; settings: 24 h and 72 h after suture placement
Experimental: as §1, §2, §3

[6] = system: VEGF-A-induced corneal HA and LA; assay: Corneal micropocket assay, VEGF-A pellet; settings: VEGF-A micropellet
Experimental: as §5, §4, §6, §7

[7] = system: suture-induced corneal NV; assay: Suture-induced inflammatory corneal angiogenesis (HA and LA)
Experimental: (§8) Six to eight-week-old male BALB/c (Taconic Farms, Germantown, N.Y.) mice were used in all experiments. All experimental protocols were approved by the Schepens Eye Research Institute Animal Care and Use Committee, and all animals were treated according to the Association for Research in Vision and Ophthalmology Statement for the Use of Animals in Ophthalmic and Vision Research.
as §1, §4, §6
To quantify corneal angiogenesis, digital pictures of corneal flat-mounts were taken using an image analysis system (Spot Image Analysis, Diagnostic Instruments, Sterling Heights, Mich.). The areas covered by CD31^high/LYVE-1^−-vessels (blood vessels) or CD31^lowLYVE-1^high vessels (lymphatics) were measured morphometrically using NIH Image J software (version 1.34s; http://rsb.info.nih.gov/ij). […] The vessel density was calculated by the proportion of neovascularized area to the whole corneal area.

[8] = system: VEGFR-2; assay: VEGFR-2 mRNA in inflamed corneas, real-time PCR; settings: 24 h and 72 h after suture placement
Experimental: as §1, §2, §3

[9] = system: inflamed corneas; assay: Neutrophil and macrophage infiltration in suture-inflamed corneas
Experimental: as §8
The standard model for induction of inflammatory corneal NV is associated with development of intrastromal vessels in close association with a mixed-cell (primarily neutrophilic) infiltrate. (43,44) Three interrupted sutures (11-0 nylon, Sharpoint; Vanguard, Houston, Tex.) were placed intrastromally with two stromal incursions extending over 120° of the corneal circumference each to induce inflammatory corneal NV, which is also associated with significant LA, as described previously. (43) The corneas were followed by slit-lamp biomicroscopy for corneal NV development. NV was graded between 0 and 3, with increments of 0.5, using a grid system per each corneal quadrant based on the centripetal extent of the neovascular branches from the limbus. Scores for each quadrant then summed to derive the NV index (range 0 to 12) for each eye, as previously described. (43)
BALB/c mice were randomized to receive ATLa, or vehicle (normal saline) by subconjunctival injection in a masked fashion after suture or hydron pellet placement. The compounds were administered at a dose of 100 ng/10 μl per mouse every 48 h after suture or pellet placed. ATLa was synthesized as described previously. (49) The physical properties were monitored routinely via LC/MS/MS matching the reported biological and physical properties prior to analysis in present experiments.
Full thickness corneal tissue or 8 μm-frozen sections were fixed in acetone for 15 minutes at room temperature. To block non-specific staining, anti-FcR mAb ([…], FcγIII/II receptor) or 10% goat serum was used before primary antibodies or isotype-matched control antibodies were applied at 4° C. overnight. Thereafter, samples were incubated with secondary antibodies at RT. Each step was followed by three thorough washings in PBS for 5-10 minutes. Finally, the samples were covered with mounting medium (Vector Laboratories, Burlingame, Calif.) and analyzed by epifluorescence microscopy (Eclipse E800; Nikon, Tokyo, Japan). The following antibodies were used: FITC-conjugated rat anti-mouse CD31 (Santa Cruz Biotechnology, Santa Cruz, Calif.), purified rat anti-mouse neutrophil (NIMP-R14, Abcam, Cambridge, Mass.), purified rat anti-mouse F4/80 (Novus Biologicals, Littleton, Colo.) and purified rabbit anti-mouse LYVE-1 (Abcam, Cambridge, Mass.). The secondary antibodies were Rodamine-conjugated donkey anti-rabbit IgG and Rodamine-conjugated goat anti-rat IgG (Santa Cruz Biotechnology, Santa Cruz, Calif.). Isotype controls included FITC-conjugated rat IgG2a, purified rat IgG2b, and purified rabbit IgG (Santa Cruz Biotechnology, Santa Cruz, Calif.).

[10] = system: VEGF-D; assay: VEGF-D mRNA in inflamed corneas, real-time PCR; settings: vs vehicle-treated controls
Experimental: as §1, §2, §3

[11] = system: TNF-α; assay: TNF-α mRNA in inflamed corneas, real-time PCR
Experimental: as §1, §2, §3

[12] = system: IL-1α; assay: IL-1α mRNA in inflamed corneas, real-time PCR; settings: 24 h and 72 h
Experimental: as §1, §2, §3

[13] = system: IL-1β; assay: IL-1β mRNA in inflamed corneas, real-time PCR; settings: vs vehicle-treated controls
Experimental: as §1, §2, §3

[14] = 72 h after suture placement, n=3

## COC(=O)CCC[C@H](O)[C@H](O)/C=C/C=C/C=C\C=C\[C@H](O)COc1ccc(F)cc1 [ATLa, 15-epi-16-(para-fluoro)-phenoxy-lipoxin A4 methyl ester]
[1]
  mRNA expression of VEGF-A: lower mRNA expressions
[2]
  mRNA expression of VEGFR-3: not significantly altered
[3]; 72 h, treated at 0 h and 48 h, n=4
  IL-1 beta in corneas: 21.3 ± 0.8 pg/mL
[3]; vs vehicle-treated group
  decrease in IL-1β protein level: 70%
[4]; day 7
  LA: no significant reduction
[4]; day 7, n=4
  BV density: 16.1±3.0%
[5]
  mRNA expression of VEGF-C: lower mRNA expressions
[6]; day 7
  LA: no significant reduction
[6]; day 7, n=4
  BV density: 5.9±0.4%
[7]; 2-week time course
  growth of corneal neovessels, slit lamp biomicroscopy: significant suppression of the angiogenic response
[7]; day 14, vs vehicle
  density of lymphatic vessels: not observed
[7]; day 14 after suture placement, n=6
  BV density: 8.26±0.63%
[8]
  mRNA expression of VEGFR-2: lower mRNA expressions
[9]; 24 and 72 h, 100 ng subconjunctival at 0 and 48 h
  inhibition of neutrophils recruitment: ~30%
[9]; 24 h after suture placement, n=3
  neutrophils: 53±1 cells/section
[9]; 72 h, vs vehicle
  reduction in macrophage infiltration: 25-40%
[9]; [14]
  macrophage: 46±5 cells/section
  neutrophils: 34±5 cells/section
[10]
  mRNA expression of VEGF-D: not significantly altered
[11]; 24 h
  increase in TNF-α expression: significantly suppressed
[11]; 72 h
  increase in TNF-α expression: not at 72 h
[12]
  expression of IL-1α: not significantly altered
[13]
  reduction in the increase of IL-1β expression levels: more than 50%

— patent US8722654B2, “Lipoxin analogs as novel inhibitors of angiogenesis” (The Brigham and Women's Hospital, Inc., priority 2001, dated 2014)
